From the kinase profiling compilation of Christmann-Franck et al. (2016)

Columns and labels:
Experiment in all cases: KINOMEscan competition binding
Details in all cases: compound 1.0 µM
[1] = molecular target: CDC42BPA (human) (UniProt Q5VT25)
[2] = molecular target: INSR (human) (UniProt P06213)
[3] = molecular target: RIPK1 (human) (UniProt Q13546)
[4] = molecular target: NEK2 (human) (UniProt P51955)
[5] = molecular target: CDK11B (human) (UniProt P21127)
[6] = molecular target: RPS6KB1 (human) (UniProt P23443)
[7] = molecular target: CSNK1A1L (human) (UniProt Q8N752)
[8] = molecular target: HUNK (human) (UniProt P57058)
[9] = molecular target: CDK2 (human) (UniProt P24941)
[10] = molecular target: CAMK4 (human) (UniProt Q16566)
[11] = molecular target: ADCK4 (human) (UniProt Q96D53)
ADCK4 (human), sequence (Q96D53 whole entry, looked up): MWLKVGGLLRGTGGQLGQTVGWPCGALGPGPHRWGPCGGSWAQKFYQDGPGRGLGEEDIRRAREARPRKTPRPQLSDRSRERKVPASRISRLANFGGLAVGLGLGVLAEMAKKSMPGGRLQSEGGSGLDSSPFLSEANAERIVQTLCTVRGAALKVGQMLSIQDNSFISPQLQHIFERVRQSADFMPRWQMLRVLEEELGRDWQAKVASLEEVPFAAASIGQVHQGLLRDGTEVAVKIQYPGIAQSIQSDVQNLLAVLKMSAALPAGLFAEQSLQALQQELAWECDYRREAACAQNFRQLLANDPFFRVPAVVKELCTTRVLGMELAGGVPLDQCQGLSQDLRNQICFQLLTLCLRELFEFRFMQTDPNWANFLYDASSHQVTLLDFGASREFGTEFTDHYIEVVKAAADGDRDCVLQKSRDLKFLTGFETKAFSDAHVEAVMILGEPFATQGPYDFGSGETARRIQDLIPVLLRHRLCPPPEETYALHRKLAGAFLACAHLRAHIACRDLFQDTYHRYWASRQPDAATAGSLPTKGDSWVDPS

[12] = molecular target: PLK4 (human) (UniProt O00444)
[13] = molecular target: CSNK1D (human) (UniProt P48730)
CSNK1D (human), sequence (P48730 whole entry, looked up): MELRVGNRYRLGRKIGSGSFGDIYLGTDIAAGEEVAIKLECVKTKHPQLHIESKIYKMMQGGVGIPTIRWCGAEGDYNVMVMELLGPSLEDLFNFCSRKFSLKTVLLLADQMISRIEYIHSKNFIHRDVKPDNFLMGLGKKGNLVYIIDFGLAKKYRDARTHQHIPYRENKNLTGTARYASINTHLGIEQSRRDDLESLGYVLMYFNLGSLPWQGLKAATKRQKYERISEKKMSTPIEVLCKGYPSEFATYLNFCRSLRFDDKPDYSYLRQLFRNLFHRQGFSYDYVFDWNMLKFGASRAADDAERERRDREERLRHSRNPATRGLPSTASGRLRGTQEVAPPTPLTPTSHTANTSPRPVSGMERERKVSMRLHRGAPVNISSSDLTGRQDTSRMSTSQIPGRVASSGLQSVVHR

[14] = system: PIK3CA (human), P42336 [H1047Y]
[15] = molecular target: RPS6KA4 KD1 (human) (UniProt O75676)
[16] = molecular target: TLK1 (human) (UniProt Q9UKI8)
[17] = molecular target: SIK1 (human) (UniProt P57059)
[18] = molecular target: MYO3B (human) (UniProt Q8WXR4)
MYO3B (human), sequence (Q8WXR4 whole entry, looked up): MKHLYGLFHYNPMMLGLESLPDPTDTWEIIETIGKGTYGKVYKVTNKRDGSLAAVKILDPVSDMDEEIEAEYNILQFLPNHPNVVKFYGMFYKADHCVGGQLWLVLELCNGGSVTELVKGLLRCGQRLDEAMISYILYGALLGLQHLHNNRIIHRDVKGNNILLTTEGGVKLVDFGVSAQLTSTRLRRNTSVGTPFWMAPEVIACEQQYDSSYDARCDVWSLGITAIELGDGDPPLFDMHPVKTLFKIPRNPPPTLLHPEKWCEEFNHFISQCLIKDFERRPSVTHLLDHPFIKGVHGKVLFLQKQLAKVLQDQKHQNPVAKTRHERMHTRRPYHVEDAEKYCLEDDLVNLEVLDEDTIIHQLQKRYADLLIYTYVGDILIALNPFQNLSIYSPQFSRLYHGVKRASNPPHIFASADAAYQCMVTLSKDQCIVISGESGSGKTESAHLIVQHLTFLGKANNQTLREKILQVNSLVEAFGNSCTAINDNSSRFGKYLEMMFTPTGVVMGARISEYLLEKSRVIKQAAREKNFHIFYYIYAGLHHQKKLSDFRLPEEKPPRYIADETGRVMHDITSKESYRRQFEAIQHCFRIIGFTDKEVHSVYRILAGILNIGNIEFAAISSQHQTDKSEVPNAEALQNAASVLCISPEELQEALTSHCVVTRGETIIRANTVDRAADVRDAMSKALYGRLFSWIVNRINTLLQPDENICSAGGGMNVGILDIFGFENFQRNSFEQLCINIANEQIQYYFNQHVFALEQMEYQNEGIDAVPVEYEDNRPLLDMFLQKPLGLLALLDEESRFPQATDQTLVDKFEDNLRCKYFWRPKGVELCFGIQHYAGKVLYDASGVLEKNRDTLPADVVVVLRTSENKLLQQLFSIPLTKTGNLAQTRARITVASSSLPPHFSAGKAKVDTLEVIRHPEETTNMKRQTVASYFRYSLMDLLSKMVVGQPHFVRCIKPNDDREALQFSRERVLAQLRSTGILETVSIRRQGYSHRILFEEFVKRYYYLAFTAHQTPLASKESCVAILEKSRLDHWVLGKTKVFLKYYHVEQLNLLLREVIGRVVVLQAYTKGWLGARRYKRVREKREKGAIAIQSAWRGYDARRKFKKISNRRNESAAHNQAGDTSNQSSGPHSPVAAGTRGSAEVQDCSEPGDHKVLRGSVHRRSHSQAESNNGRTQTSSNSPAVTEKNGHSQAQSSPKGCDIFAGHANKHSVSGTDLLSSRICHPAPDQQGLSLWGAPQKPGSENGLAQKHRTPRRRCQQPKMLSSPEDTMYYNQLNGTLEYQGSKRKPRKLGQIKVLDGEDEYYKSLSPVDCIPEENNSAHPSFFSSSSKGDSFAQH

[19] = system: ABL1 (human), P00519 [Y253F]
[20] = molecular target: RPS6KA1 KD2 (human) (UniProt Q15418)
[21] = molecular target: TXK (human) (UniProt P42681)
[22] = molecular target: RIOK1 (human) (UniProt Q9BRS2)
[23] = molecular target: YES1 (human) (UniProt P07947)
YES1 (human), sequence (P07947 whole entry, looked up): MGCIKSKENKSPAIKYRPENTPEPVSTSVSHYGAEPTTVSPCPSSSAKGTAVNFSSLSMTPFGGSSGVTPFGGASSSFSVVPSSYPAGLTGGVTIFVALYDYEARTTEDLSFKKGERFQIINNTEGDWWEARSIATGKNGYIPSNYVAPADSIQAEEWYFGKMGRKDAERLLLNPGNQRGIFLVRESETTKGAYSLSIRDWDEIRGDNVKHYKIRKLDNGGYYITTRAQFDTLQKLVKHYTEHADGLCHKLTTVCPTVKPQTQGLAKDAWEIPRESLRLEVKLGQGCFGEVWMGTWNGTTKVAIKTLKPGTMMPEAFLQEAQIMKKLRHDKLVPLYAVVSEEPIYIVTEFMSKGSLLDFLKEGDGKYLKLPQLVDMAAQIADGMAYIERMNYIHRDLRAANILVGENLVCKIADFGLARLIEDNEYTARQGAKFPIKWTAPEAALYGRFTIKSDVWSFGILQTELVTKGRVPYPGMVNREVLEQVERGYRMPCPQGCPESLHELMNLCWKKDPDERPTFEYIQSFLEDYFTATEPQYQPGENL

[24] = system: PIK3CA (human), P42336 [M1043I]
[25] = molecular target: CHEK1 (human) (UniProt O14757)
[26] = molecular target: MAPK9 (human) (UniProt P45984)
MAPK9 (human), sequence (P45984 whole entry, looked up): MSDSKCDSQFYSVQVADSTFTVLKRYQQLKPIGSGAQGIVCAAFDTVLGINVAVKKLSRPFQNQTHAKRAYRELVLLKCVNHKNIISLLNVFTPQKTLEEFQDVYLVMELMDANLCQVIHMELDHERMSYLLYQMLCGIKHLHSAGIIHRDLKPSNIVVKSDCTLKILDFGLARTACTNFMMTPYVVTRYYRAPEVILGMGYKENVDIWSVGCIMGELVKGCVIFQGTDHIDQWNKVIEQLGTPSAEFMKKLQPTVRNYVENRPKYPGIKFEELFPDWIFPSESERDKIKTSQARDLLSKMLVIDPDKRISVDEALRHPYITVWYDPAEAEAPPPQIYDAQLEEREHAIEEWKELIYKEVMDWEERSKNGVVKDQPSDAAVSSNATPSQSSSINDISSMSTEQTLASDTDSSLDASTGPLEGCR

[27] = molecular target: SGK110 (human) (UniProt P0C264)
[28] = molecular target: IKBKB (human) (UniProt O14920)
[29] = molecular target: MAP3K10 (human) (UniProt Q02779)
[30] = molecular target: TNNI3K (human) (UniProt Q59H18)
[31] = molecular target: MAP4K2 (human) (UniProt Q12851)
MAP4K2 (human), sequence (Q12851 whole entry, looked up): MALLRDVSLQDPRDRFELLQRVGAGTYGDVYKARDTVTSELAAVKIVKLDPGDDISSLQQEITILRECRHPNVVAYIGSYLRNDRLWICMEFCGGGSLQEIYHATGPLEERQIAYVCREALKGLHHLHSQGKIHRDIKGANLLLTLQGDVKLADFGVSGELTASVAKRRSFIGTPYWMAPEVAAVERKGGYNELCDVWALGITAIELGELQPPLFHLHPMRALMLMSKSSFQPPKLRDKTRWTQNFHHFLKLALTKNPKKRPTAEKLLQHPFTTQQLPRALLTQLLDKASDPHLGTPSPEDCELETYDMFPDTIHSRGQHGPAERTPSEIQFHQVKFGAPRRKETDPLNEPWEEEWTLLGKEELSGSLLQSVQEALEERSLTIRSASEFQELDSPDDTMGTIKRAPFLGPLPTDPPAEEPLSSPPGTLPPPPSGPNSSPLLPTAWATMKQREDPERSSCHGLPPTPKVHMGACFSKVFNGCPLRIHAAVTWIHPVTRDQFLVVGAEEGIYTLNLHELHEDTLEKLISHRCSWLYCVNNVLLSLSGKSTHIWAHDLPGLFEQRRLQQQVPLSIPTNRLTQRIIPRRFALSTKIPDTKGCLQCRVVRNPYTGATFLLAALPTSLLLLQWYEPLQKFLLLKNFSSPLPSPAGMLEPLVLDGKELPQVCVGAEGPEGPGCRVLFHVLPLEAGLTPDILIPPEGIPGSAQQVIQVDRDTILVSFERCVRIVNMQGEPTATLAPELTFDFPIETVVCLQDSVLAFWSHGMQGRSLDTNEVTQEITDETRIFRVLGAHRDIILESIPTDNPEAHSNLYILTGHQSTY

[32] = molecular target: PDPK1 (human) (UniProt O15530)
[33] = molecular target: IRAK1 (human) (UniProt P51617)
[34] = molecular target: MAST1 (human) (UniProt Q9Y2H9)
[35] = molecular target: CDK18 (human) (UniProt Q07002)
[36] = molecular target: PKMYT1 (human) (UniProt Q99640)
[37] = molecular target: STK25 (human) (UniProt O00506)
STK25 (human), sequence (O00506 whole entry, looked up): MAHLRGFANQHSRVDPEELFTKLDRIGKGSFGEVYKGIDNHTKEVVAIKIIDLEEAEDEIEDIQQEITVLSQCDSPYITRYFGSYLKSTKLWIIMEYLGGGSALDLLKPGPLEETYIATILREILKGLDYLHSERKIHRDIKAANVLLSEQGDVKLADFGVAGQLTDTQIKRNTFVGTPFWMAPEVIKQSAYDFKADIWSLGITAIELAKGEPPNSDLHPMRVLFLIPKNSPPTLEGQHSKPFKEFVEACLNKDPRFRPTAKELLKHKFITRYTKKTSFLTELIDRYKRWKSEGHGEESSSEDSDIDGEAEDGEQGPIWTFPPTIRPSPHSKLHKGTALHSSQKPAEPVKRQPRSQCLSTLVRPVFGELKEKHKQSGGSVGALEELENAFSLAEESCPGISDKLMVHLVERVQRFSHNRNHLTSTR

[38] = molecular target: MAPKAPK5 (human) (UniProt Q8IW41)
[39] = molecular target: DAPK1 (human) (UniProt P53355)
[40] = molecular target: MINK1 (human) (UniProt Q8N4C8)
[41] = system: EGFR (human), P00533 [746-750 del]
[42] = molecular target: MAP3K2 (human) (UniProt Q9Y2U5)

NEK2 (human), sequence (P51955 whole entry, looked up): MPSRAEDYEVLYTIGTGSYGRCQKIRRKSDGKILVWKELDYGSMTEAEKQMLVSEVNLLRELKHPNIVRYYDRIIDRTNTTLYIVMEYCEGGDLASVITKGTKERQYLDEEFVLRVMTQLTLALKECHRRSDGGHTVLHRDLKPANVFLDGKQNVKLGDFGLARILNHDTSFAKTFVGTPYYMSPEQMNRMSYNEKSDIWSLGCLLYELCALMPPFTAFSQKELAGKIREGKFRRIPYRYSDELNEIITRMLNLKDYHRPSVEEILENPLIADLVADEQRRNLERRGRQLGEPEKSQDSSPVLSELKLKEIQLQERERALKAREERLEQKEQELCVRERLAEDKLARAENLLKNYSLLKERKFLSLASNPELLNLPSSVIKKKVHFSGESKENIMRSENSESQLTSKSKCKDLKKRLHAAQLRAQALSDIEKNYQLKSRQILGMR

CN(C)C/C=C/C(=O)Nc1cccc(C(=O)Nc2ccc(Nc3nccc(-c4cccnc4)n3)cc2)c1
kinase still bound, per cent of control [1]: 100%
kinase still bound, per cent of control [2]: 100%
kinase still bound, per cent of control [3]: 18%
kinase still bound, per cent of control [4]: 86%
kinase still bound, per cent of control [5]: 71%
kinase still bound, per cent of control [6]: 68%
kinase still bound, per cent of control [7]: 37%
kinase still bound, per cent of control [8]: 65%
kinase still bound, per cent of control [9]: 100%
kinase still bound, per cent of control [10]: 100%
kinase still bound, per cent of control [11]: 69%
kinase still bound, per cent of control [12]: 52%
kinase still bound, per cent of control [13]: 5.6%
kinase still bound, per cent of control [14]: 100%
kinase still bound, per cent of control [15]: 82%
kinase still bound, per cent of control [16]: 92%
kinase still bound, per cent of control [17]: 87%
kinase still bound, per cent of control [18]: 100%
kinase still bound, per cent of control [19]: 39%
kinase still bound, per cent of control [20]: 82%
kinase still bound, per cent of control [21]: 83%
kinase still bound, per cent of control [22]: 15%
kinase still bound, per cent of control [23]: 98%
kinase still bound, per cent of control [24]: 74%
kinase still bound, per cent of control [25]: 100%
kinase still bound, per cent of control [26]: 0%
kinase still bound, per cent of control [27]: 100%
kinase still bound, per cent of control [28]: 48%
kinase still bound, per cent of control [29]: 65%
kinase still bound, per cent of control [30]: 77%
kinase still bound, per cent of control [31]: 9.9%
kinase still bound, per cent of control [32]: 93%
kinase still bound, per cent of control [33]: 0.1%
kinase still bound, per cent of control [34]: 77%
kinase still bound, per cent of control [35]: 100%
kinase still bound, per cent of control [36]: 100%
kinase still bound, per cent of control [37]: 58%
kinase still bound, per cent of control [38]: 68%
kinase still bound, per cent of control [39]: 63%
kinase still bound, per cent of control [40]: 37%
kinase still bound, per cent of control [41]: 88%
kinase still bound, per cent of control [42]: 100%

CN(C)C/C=C/C(=O)Nc1cccc(C(=O)Nc2ccc(Nc3nccc(-c4c(-c5ccccc5)nn5ccccc45)n3)cc2)c1
kinase still bound, per cent of control [1]: 13%
kinase still bound, per cent of control [2]: 100%
kinase still bound, per cent of control [3]: 73%
kinase still bound, per cent of control [4]: 93%
kinase still bound, per cent of control [5]: 43%
kinase still bound, per cent of control [6]: 83%
kinase still bound, per cent of control [7]: 5.5%
kinase still bound, per cent of control [8]: 67%
kinase still bound, per cent of control [9]: 100%
kinase still bound, per cent of control [10]: 100%
kinase still bound, per cent of control [11]: 0%
kinase still bound, per cent of control [12]: 92%
kinase still bound, per cent of control [13]: 3.1%
kinase still bound, per cent of control [14]: 93%
kinase still bound, per cent of control [15]: 88%
kinase still bound, per cent of control [16]: 67%
kinase still bound, per cent of control [17]: 29%
kinase still bound, per cent of control [18]: 97%
kinase still bound, per cent of control [19]: 1.6%
kinase still bound, per cent of control [20]: 36%
kinase still bound, per cent of control [21]: 24%
kinase still bound, per cent of control [22]: 100%
kinase still bound, per cent of control [23]: 12%
kinase still bound, per cent of control [24]: 100%
kinase still bound, per cent of control [25]: 100%
kinase still bound, per cent of control [26]: 0%
kinase still bound, per cent of control [27]: 100%
kinase still bound, per cent of control [28]: 84%
kinase still bound, per cent of control [29]: 100%
kinase still bound, per cent of control [30]: 100%
kinase still bound, per cent of control [31]: 90%
kinase still bound, per cent of control [32]: 100%
kinase still bound, per cent of control [33]: 2%
kinase still bound, per cent of control [34]: 99%
kinase still bound, per cent of control [35]: 95%
kinase still bound, per cent of control [36]: 100%
kinase still bound, per cent of control [37]: 100%
kinase still bound, per cent of control [38]: 100%
kinase still bound, per cent of control [39]: 94%
kinase still bound, per cent of control [40]: 46%
kinase still bound, per cent of control [41]: 0%
kinase still bound, per cent of control [42]: 52%
